SMILES strings stand for the structures.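 Tested at 5 concentrations; 48 h exposure; 96-well plates; endpoints linearly interpolated, else capped at highest concentration. The concentration for full growth arrest is given as TGI.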

Holding throughout (assay): inhibition of tumour cell growth, NCI panel, 48 h
For assay [1], the system named is T-47D breast.
Assay [2] concerns OVCAR-5 ovarian.
Assay [3] has as its system COLO 205 colon.
Assay [4] concerns DU-145 prostate.
Assay [5] has as its system UACC-257 melanoma.
Assay [6] deals with BT-549 breast.
For assay [7], the system named is NCI-H23 lung.
For assay [8], the system named is SW-620 colon.
In assay [9] the test system is OVCAR-8 ovarian.
The test system of assay [10] is MOLT-4 leukemia.
Assay [11] relates to RPMI-8226 leukemia.
Assay [12] concerns NCI/ADR-RES ovarian.
For assay [13], the system named is HOP-92 NSCLC.
In assay [14] the test system is MALME-3M melanoma.
The test system of assay [15] is 786-0 renal.
Assay [16] has as its system NCI-H522 lung.
Assay [17] concerns SNB-19 CNS.
The subject of assay [18] is SK-OV-3 ovarian.
The test system of assay [19] is SF-295 CNS.

Consider `Cc1ccc(S(=O)(=O)N2CCN(S(=O)(=O)c3ccc(C)cc3)CCN(S(=O)(=O)c3ccc(C)cc3)Cc3cc(Br)c(Br)cc3CN(S(=O)(=O)c3ccc(C)cc3)CC2)cc1`, for which the TGI in assay [1], in assay [2], in assay [3], in assay [4], in assay [5] and in assay [6] was > 100 µM in each case. Besides, the TGI in assay [7], in assay [8], in [9], in assay [10], in assay [11] and in [12] was > 100 µM in each case. Moreover, the TGI in [13] was 92.4 µM; in [14] it was > 100 µM; in assay [15], > 100 µM; in [16], > 100 µM; in assay [17] it was > 100 µM; in assay [18], > 100 µM. The TGI in assay [19] is > 100 µM.
For the compound `O=C(Nc1ccc2[nH]c(C(=O)N3CC(CCl)c4ccc([N+](=O)[O-])cc43)cc2c1)c1cc2ccccc2o1` (configuration not stated), the TGI in [1], in assay [2], in assay [3], in assay [4], in assay [5] and in assay [6] was > 1100 µM in each case. Moreover, the TGI in assay [7], in assay [8], in assay [9], in [10], in assay [11] and in assay [12] was > 1100 µM in each case. Also, the TGI in [13], in [14], in [15], in assay [16], in assay [17] and in assay [18] was > 1100 µM each time. Also, the TGI in assay [19] was > 1100 µM.
As to `COC1=C2CC(C)CC(OC)C(OC(=O)CCCN)C(C)/C=C(\C)C(OC(N)=O)C(OC)/C=C\C=C(/C)C(=O)NC(=CC1=O)C2=O` (configuration not stated), the TGI was determined as 4.65 µM in [1]; 23.8 µM in assay [2]; 9.48 µM in [3]; 30.5 µM in assay [4]; 17.7 µM in assay [5]; 15.8 µM in assay [6]. Besides, the TGI in assay [7] stood at 14.4 µM; in assay [8], 17.7 µM; in assay [9], 21.6 µM; in assay [10], 3.81 µM; in assay [11] it was 32.5 µM; in assay [12] it was 43.7 µM. The TGI came out at 14.6 µM in [13]; 14.9 µM in [14]; 18.1 µM in assay [15]; 1.96 µM in assay [16]; 24.9 µM in assay [17]; 35.1 µM in assay [18]. Besides, the TGI in assay [19] amounted to 31.1 µM.
In the case of `COc1cc(C(=O)O)c(-c2cc3c(cc2C=O)OCO3)c(OC)c1OC`, the TGI in assay [1], in assay [3], in [4], in [5], in assay [6] and in [7] was > 10 µM in each case. For the same compound, the TGI in [8], in [9], in [10], in assay [11], in assay [12] and in assay [13] was > 10 µM throughout. The TGI in assay [14], in assay [15], in assay [16], in [17], in assay [18] and in assay [19] was > 10 µM throughout.
For `C=CCNC(=O)CN(CC(=O)O)C1CCCCC1N(CC(=O)O)CC(=O)O` (configuration not stated), the TGI in assay [1], in [2], in assay [3], in assay [4], in assay [5] and in [6] was > 100 µM each time. Besides, the TGI in assay [7], in assay [8], in [9], in [10], in assay [11] and in assay [12] was > 100 µM in each case. Moreover, the TGI in assay [13], in assay [14], in assay [15], in [16], in assay [17] and in assay [18] was > 100 µM in each case. Also, in [19], the TGI is > 100 µM.
`O=[N+]([O-])C(=C/c1cccc2ccccc12)/C(=C\c1cccc2ccccc12)[N+](=O)[O-]`: the TGI in [1] is 10.6 µM; in [2] it was 12.3 µM; in [3], > 21.7 µM; in [4] it was 8.77 µM; in [5], 5.44 µM; in assay [6], 4.26 µM. The TGI was 4.36 µM in assay [7]; 4.5 µM in assay [8]; 7.29 µM in assay [9]; 8.59 µM in assay [10]; 6.05 µM in [11]; 5.79 µM in assay [12]. In addition, the TGI in assay [13] turned out to be 4.25 µM; in assay [14] it was 5.49 µM; in assay [15], 3.72 µM; in [16], 3.63 µM; in assay [17], 11.5 µM; in assay [18] it was 19.1 µM. The compound also showed a TGI in assay [19] of 8.19 µM.
Take `CC(=O)N(CC(=O)C(=O)NNc1ccoc1)c1ccc(Cl)cc1`: the TGI in [1], in [2], in assay [3], in assay [4], in assay [5] and in [6] was > 100 µM throughout. Also, the TGI in assay [7], in assay [8], in assay [9], in assay [10], in assay [11] and in assay [12] was > 100 µM each time. Also, the TGI in [13], in assay [14], in [15], in assay [16], in assay [17] and in assay [18] was > 100 µM throughout. The TGI in [19] is > 100 µM.
With `CC(=O)NCCCCN(CCCNC(C)=O)C(=O)OCc1ccccc1`, the TGI in [1], in assay [2], in assay [3], in assay [4], in assay [5] and in [6] was > 100 µM each time. The TGI in assay [7], in assay [8], in [9], in assay [10], in [11] and in assay [12] was > 100 µM in each case. For the same compound, the TGI in [13], in assay [14], in [15], in assay [16], in assay [18] and in assay [19] was > 100 µM each time.
Turning to `CNC(=O)CCCNC(=O)CCCC(=O)OC`, the TGI in [1], in assay [2], in assay [3], in [4], in [5] and in assay [6] was > 100 µM each time. In addition, the TGI in assay [7], in assay [8], in assay [9], in [10], in assay [11] and in assay [12] was > 100 µM throughout. Also, the TGI in [13], in assay [14], in assay [15], in assay [16], in [17] and in assay [18] was > 100 µM in each case. The TGI in [19] is > 100 µM.
For the compound `O=c1[nH]c2nc[nH]c2c(=O)n1C1CCCCC1`, the TGI in [1], in assay [2], in [3], in assay [4], in assay [5] and in assay [6] was > 100 µM throughout. For the same compound, the TGI in [7], in assay [8], in assay [9], in assay [10], in [11] and in assay [12] was > 100 µM in each case. In addition, the TGI in assay [13], in assay [14], in assay [15], in assay [16], in [17] and in [18] was > 100 µM each time. Besides, in [19], the TGI was > 100 µM.
Regarding `c1n[nH]cc1C12C3C4C5C3C1C5C42` (configuration not stated), the TGI in assay [1], in assay [2], in [3], in assay [4], in assay [5] and in assay [6] was > 100 µM each time. For the same compound, the TGI in assay [7], in assay [8], in assay [9], in assay [10], in [11] and in assay [12] was > 100 µM each time. Also, the TGI in assay [13], in assay [14], in assay [15], in assay [16], in assay [17] and in assay [18] was > 100 µM each time. Moreover, the TGI in [19] is > 100 µM.
For the compound `FC(F)(F)c1cccnc1Sc1nc2ccccc2s1`, the TGI in assay [1], in [2], in assay [3], in assay [4], in [5] and in assay [6] was > 100 µM throughout. Further, the TGI in assay [7], in assay [8], in [9], in assay [10], in [11] and in [12] was > 100 µM in each case. Further, the TGI in assay [13], in assay [14], in assay [15], in assay [16], in [17] and in assay [19] was > 100 µM each time.
Consider `CCCC(=O)OCOC(=O)N(C)N=Nc1ccc(C(=O)OCC)cc1`, for which the TGI is > 100 µM in [1]; > 100 µM in assay [2]; 51.5 µM in [3]; 64.1 µM in assay [4]; > 100 µM in assay [5]; 76.9 µM in assay [6]. Further, the TGI was 66.4 µM in [7]; 66.3 µM in assay [8]; 84.7 µM in assay [9]; > 100 µM in [10]; > 100 µM in assay [11]; > 100 µM in assay [12]. Also, the TGI in assay [13] is 63.7 µM; in assay [14], 43.3 µM; in assay [15] it was 59.8 µM; in assay [16] it was 38 µM; in assay [17], > 100 µM; in assay [18], > 100 µM. Moreover, the TGI in assay [19] turned out to be 53.8 µM.
For the compound `O=C(O)Cc1cccc2c(=O)c3cccc([N+](=O)[O-])c3[nH]c12`, the TGI in assay [1] is > 100 µM; in assay [2] it was > 100 µM; in assay [3], 39.4 µM; in assay [4], > 100 µM; in [5] it was > 100 µM; in assay [6], > 100 µM. The TGI in assay [7], in [8], in [9], in [10], in assay [11] and in [12] was > 100 µM throughout. The TGI in [13] was > 100 µM; in assay [14], 97.6 µM; in assay [15], > 100 µM; in assay [16] it was > 100 µM; in assay [17] it was > 100 µM; in assay [18], > 100 µM. Besides, the TGI in assay [19] is > 100 µM.
As for `O=C(/C=C(\Nc1ccccc1O)c1ccc(Br)cc1)C(Cl)(Cl)Cl`, the TGI stood at 20.2 µM in [1]; 24.5 µM in assay [2]; 22.1 µM in [3]; 13.8 µM in assay [4]; 20.1 µM in [5]; 28.5 µM in assay [6]. Besides, the TGI in assay [7] was determined as 26.1 µM; in [8], 16.5 µM; in [9], 27 µM; in assay [10], 33.7 µM; in assay [11], 7.29 µM; in assay [12] it was 25.1 µM. In addition, the TGI in [13] stood at 15.4 µM; in assay [14], 29.2 µM; in assay [15], 27.6 µM; in assay [16], 30.2 µM; in assay [17] it was 20.3 µM; in assay [18], 16 µM. In assay [19], this compound showed a TGI of 20 µM.

The record behind these values is PubChem BioAssay (NCI).
